Results as given in patent US12344610B2, “APOL1 inhibitors and methods of use” (Maze Therapeutics, Inc., priority 2022, dated 2025).

System: HEK293 clonal cell line overexpressing APOL1 G1
Test: APOL1 G1 HEK293 cell rescue assay (Example B3)
Assay type: cell-based
Details: geometric mean of at least 2 runs, † = single run, ¥ = concentration at 50% rescue estimated (no sigmoidal curve)
Procedure, shortened: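 HEK293 clonal line overexpressing APOL1 G1; EC50 is half-maximal reversal of APOL1-induced cell death. Values are the geometric mean of ≥2 runs on separate days, each run the average of duplicate wells. Where no sigmoidal curve could be fitted, the concentration giving 50% rescue was estimated.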

[1] = HEK293 clonal line overexpressing APOL1 G1
[2] = Homo sapiens, HEK293, HEK293 clonal line overexpressing APOL1 G1

Row | SMILES | EC50 [1] [nM] | EC50 [2] [nM]
1 | CC(COc1ccc2c(c1)CCC(=O)N2C)N1CCC2(CC1)C(=O)Nc1ccc(Cl)cc12 (single isomer, unassigned) [Compound 200] | 203 | –
2 | CC(COc1ccc2c(c1)CCC(=O)N2C)N1CCC2(CC1)C(=O)Nc1ccc(C#N)cc12 (single isomer, unassigned) [Compound 203, (S) or (R)-1′-{1-[(1-methyl-2-oxo-1,2,3,4-tetrahydroquinolin-6-yl)oxy]propan-2-yl}-2-oxo-1,2-dihydrospiro[indole-3,4′-piperidine]-5-carbonitrile] | 457 | –
3 | C[C@@H](COc1ccc(S(C)(=O)=O)c(C(F)F)c1)N1CCC2(CC1)C(=O)Nc1ccc(Cl)cc12 (single isomer, unassigned) [Compound 210] | – | 153
4 | C[C@@H](COc1ccc2c(cnn2C)c1)N1CCC2(CC1)C(=O)Nc1ccc(Cl)cc12 (single isomer, unassigned) [Compound 211] | – | 380
5 | C[C@@H](COc1ccc(S(C)(=O)=O)c(C(F)F)c1)N1CCC2(CC1)C(=O)Nc1ccc(C#N)cc12 (single isomer, unassigned) [Compound 212] | – | 192
6 | CS(=O)(=O)c1ccc(OCCN2CCC3(CC2)C(=O)Nc2ccc(Cl)cc23)cc1C(F)CF (single isomer, unassigned) [Compound 218, 5-chloro-1′-(2-{3-[(1S or 1R)-1,2-difluoroethyl]-4-methanesulfonylphenoxy}ethyl)-1,2-dihydrospiro[indole-3,4′-piperidin]-2-one] | – | 125
7 | CS(=O)(=O)c1ccc(OCCN2CCC3(CC2)C(=O)Nc2ccc(Cl)cc23)cc1C(F)CF (single isomer, unassigned) [Compound 219, 5-chloro-1′-(2-{3-[(1R or 1S)-1,2-difluoroethyl]-4-methanesulfonylphenoxy}ethyl)-1,2-dihydrospiro[indole-3,4′-piperidin]-2-one] | 116 | –
8 | CS(=O)(=O)c1ccc(OCCN2CCC3(CC2)C(=O)Nc2ccc(C#N)cc23)cc1C(F)CF (single isomer, unassigned) [Compound 221, 1′-(2-{3-[(1S or 1R)-1,2-difluoroethyl]-4-methanesulfonyl-phenoxy}ethyl)-2-oxo-1,2-dihydrospiro [indole-3,4′-piperidine]-5-carbonitrile] | 217 | –
9 | CC(COc1ccc(C2(S(C)(=O)=O)COC2)cc1)N1CCC2(CC1)C(=O)Nc1ccc(C#N)cc12 (single isomer, unassigned) [Compound 263, (S) or (R)-1′-{1-[4-(3-methanesulfonyloxetan-3-yl)phenoxy]propan-2-yl}-2-oxo-1,2-dihydrospiro[indole-3,4′-piperidine]-5-carbonitrile] | 462 | –
10 | CN1C(=O)C2(CCN(CCOc3ccc(C4(S(C)(=O)=O)CC(O)C4)cc3)CC2)c2cc(C(F)F)ccc21 (single isomer, unassigned) [Compound 278, 5-(difluoromethyl)-1-methyl-1′-(2-{4-[(cis) or (trans)-3-hydroxy-1-methanesulfonylcyclobutyl]phenoxy}ethyl)-1,2-dihydrospiro[indole-3,4′-piperidin]-2-one] | 92.6 | –
11 | CS(=O)(=O)C1(c2ccc(OCCN3CCC4(CC3)C(=O)Nc3ccc(C(F)F)cc34)cc2)CC(O)C1 (single isomer, unassigned) [Compound 281, 5-(difluoromethyl)-1′-(2-{4-[(cis) or (trans)-3-hydroxy-1-methanesulfonylcyclobutyl]phenoxy}ethyl)-1,2-dihydrospiro[indole-3,4′-piperidin]-2-one] | 164 | –
12 | CC(O)c1ncc(OCCN2CCC3(CC2)C(=O)Nc2ccc(Cl)cc23)cn1 (single isomer, unassigned) [Compound 285, 5-chloro-1′-[2-({2-[(1S) or (1R)-1-hydroxyethyl]pyrimidin-5-yl}oxy)ethyl]-1,2-dihydrospiro[indole-3,4′-piperidin]-2-one] | – | 292
13 | CC(O)c1ncc(OCCN2CCC3(CC2)C(=O)Nc2ccc(Cl)cc23)cn1 (single isomer, unassigned) [Compound 286, 5-chloro-1′-[2-({2-[(1R) or (1S)-1-hydroxyethyl]pyrimidin-5-yl}oxy)ethyl]-1,2-dihydrospiro[indole-3,4′-piperidin]-2-one] | 272 | –
14 | CC(O)c1ncc(OCCN2CCC3(CC2)C(=O)Nc2ccc(Cl)cc23)cc1C(F)(F)F (single isomer, unassigned) [Compound 291, 5-chloro-1′-[2-({6-[(1R) or (1S)-1-hydroxyethyl]-5-(trifluoromethyl)pyridin-3-yl}oxy)ethyl]-1,2-dihydrospiro[indole-3,4′-piperidin]-2-one] | 104 | –
15 | CC(O)c1ncc(OCCN2CCC3(CC2)C(=O)Nc2ccc(Cl)cc23)cc1C(F)(F)F (single isomer, unassigned) [Compound 292, 5-chloro-1′-[2-({6-[(1S) or (1R)-1-hydroxyethyl]-5-(trifluoromethyl)pyridin-3-yl}oxy)ethyl]-1,2-dihydrospiro[indole-3,4′-piperidin]-2-one] | 51.5 | –
16 | O=C1CCc2cc(OCCN3CCC4(CC3)C(=O)Nc3ccc(Cl)cc34)cnc2N1[C@H]1C[C@@](O)(C2CC2)C1 (single isomer, unassigned) [Compound 297, 5-chloro-1′-[2-({7-oxo-8-[(trans)-3-cyclopropyl-3-hydroxycyclobutyl]-5,6,7,8-tetrahydro-1,8-naphthyridin-3-yl}oxy)ethyl]-1,2-dihydrospiro[indole-3,4′-piperidin]-2-one] | – | 119
17 | CS(=O)(=O)c1ccc(OCCN2CCC3(CC2)C(=O)N(CCO)c2ccc(Cl)cc23)cc1 [Compound 18, 5-chloro-1-(2-hydroxyethyl)-1′-[2-(4-methanesulfonylphenoxy)ethyl]-1,2-dihydrospiro[indole-3,4′-piperidin]-2-one] | – | 663
18 | COCCN1C(=O)C2(CCN(CCOc3ccc(S(C)(=O)=O)cc3)CC2)c2cc(Cl)ccc21 [Compound 20, 5-chloro-1′-[2-(4-methanesulfonylphenoxy)ethyl]-1-(2-methoxyethyl)-1,2-dihydrospiro[indole-3,4′-piperidin]-2-one] | – | 815
19 | CN1C(=O)C2(CCN(CCOc3ccc(S(=O)(=O)CCCS(C)(=O)=O)cc3)CC2)c2cc(Cl)ccc21 [Compound 23, 5-chloro-1′-{2-[4-(3-methanesulfonylpropanesulfonyl)phenoxy]ethyl}-1-methyl-1,2-dihydrospiro[indole-3,4′-piperidin]-2-one] | – | 449
20 | COCCN1C(=O)C2(CCN(CCOc3ccc(S(C)(=O)=O)cc3)CC2)c2cc(C#N)ccc21 [Compound 25, 1′-[2-(4-methanesulfonylphenoxy)ethyl]-1-(2-methoxyethyl)-2-oxo-1,2-dihydrospiro[indole-3,4′-piperidine]-5-carbonitrile] | – | ~8300
21 | CS(=O)(=O)c1ccc(OCCN2CCCC3(CC2)C(=O)Nc2ccccc23)cc1 (stereo not drawn) [Compound 26, 1-(2-(4-(methylsulfonyl)phenoxy)ethyl)spiro[azepane-4,3′-indolin]-2′-one] | – | ~10900
22 | CN1C(=O)CCc2cc(OCCN3CCC4(CC3)C(=O)Nc3ccc(Cl)cc34)ccc21 [Compound 27, 5-chloro-1′-[2-[(1-methyl-2-oxo-3,4-dihydroquinolin-6-yl)oxy]ethyl]spiro[indoline-3,4′-piperidine]-2-one] | – | 186
23 | O=C1CCc2cc(OCCN3CCC4(CC3)C(=O)Nc3ccc(Cl)cc34)cnc2N1CCO [Compound 192, 5-chloro-1′-(2-{[8-(2-hydroxyethyl)-7-oxo-5,6,7,8-tetrahydro-1,8-naphthyridin-3-yl]oxy}ethyl)-1,2-dihydrospiro[indole-3,4′-piperidin]-2-one] | – | 126
24 | CC(=O)N(C)CCS(=O)(=O)c1ccc(OCCN2CCC3(CC2)C(=O)Nc2ccc(Cl)cc23)cc1 [Compound 193, N-{2-[4-(2-{5-chloro-2-oxo-1,2-dihydrosiro[indole-3,4′-piperidin]-1′-yl}ethoxy)benzenesulfonyl]ethyl}-N-methylacetamide] | – | 377
25 | CS(=O)(=O)C1(c2ccc(OCCN3CCC4(CC3)C(=O)Nc3ccc(Cl)cc34)cc2)COC1 [Compound 195, 5-chloro-1′-{2-[4-(3-methanesulfonyloxetan-3-yl)phenoxy]ethyl}-1,2-dihydrospiro[indole-3,4′-piperidin]-2-one] | – | 72
26 | O=C1Nc2ccc(Cl)cc2C12CCN(CCOc1ccc3c(c1)CCS3(=O)=O)CC2 [Compound 196, 5-(2-{5-chloro-2-oxo-1,2-dihydrospiro[indole-3,4′-piperidin]-1′-yl}ethoxy)-2,3-dihydro-1λ^6-benzothiophene-1,1-dione] | – | 207
27 | CS(=O)(=O)c1ccc(OCCN2CCC3(CC2)C(=O)Nc2ccc(Cl)cc23)cc1C(F)F [Compound 197, 5-chloro-1′-{2-[3-(difluoromethyl)-4-methanesulfonylphenoxy]ethyl}-1,2-dihydrospiro[indole-3,4′-piperidin]-2-one] | – | 69.5
28 | O=C1Nc2ccc(Cl)cc2C12CCN(CCOc1ccc(S(=O)(=O)CCO)cc1)CC2 [Compound 198, 5-chloro-1′-{2-[4-(2-hydroxyethanesulfonyl)phenoxy)ethyl}-1,2-dihydrospiro[indole-3,4′-piperidin]-2-one] | – | 203
29 | CS(=O)(=O)Nc1ccc(OCCN2CCC3(CC2)C(=O)Nc2ccc(Cl)cc23)cc1 [Compound 214, N-[4-(2-{5-chloro-2-oxo-1,2-dihydrospiro[indole-3,4′-piperidin]-1′-yl}ethoxy)phenyl]methanesulfonamide] | – | 169
30 | O=C1Nc2ccc(Cl)cc2C12CCN(CCOc1ccc(S(=O)(=O)[C@H]3C[C@H](O)C3)cc1)CC2 [Compound 215, 5-chloro-1′-[2-(4-{[(trans)-3-hydroxycyclobutyl]sulfonyl}phenoxy)ethyl]-1,2-dihydrospiro[indole-3,4′-piperidin]-2-one] | – | 122
